Data from patent US8623857B2, “N-phenyl imidazole carboxamide inhibitors of 3-phosphoinositide-dependent protein kinase-1” (Merck Sharp & Dohme Corp., priority 2010, dated 2014).

Biological target: T1, recombinant human PDK1 (Homo sapiens, UniProt O15530)
T1 construct: containing amino acids 51-556 of the human PDK1 enzyme; made in house; host or cells: Sf9 insect cells
T1 sequence (O15530 51-556): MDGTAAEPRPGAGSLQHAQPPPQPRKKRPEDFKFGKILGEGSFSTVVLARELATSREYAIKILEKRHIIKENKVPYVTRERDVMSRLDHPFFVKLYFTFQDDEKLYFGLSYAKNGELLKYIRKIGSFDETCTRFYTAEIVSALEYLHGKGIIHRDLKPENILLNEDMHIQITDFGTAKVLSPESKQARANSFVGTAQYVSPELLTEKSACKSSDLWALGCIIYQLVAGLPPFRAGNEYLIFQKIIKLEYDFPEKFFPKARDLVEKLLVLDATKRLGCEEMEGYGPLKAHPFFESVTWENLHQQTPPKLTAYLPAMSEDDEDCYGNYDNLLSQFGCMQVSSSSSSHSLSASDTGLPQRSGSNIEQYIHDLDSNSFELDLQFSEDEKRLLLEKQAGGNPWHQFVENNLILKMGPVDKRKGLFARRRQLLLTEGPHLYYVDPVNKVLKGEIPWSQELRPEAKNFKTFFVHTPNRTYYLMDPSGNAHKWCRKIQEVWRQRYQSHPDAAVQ
Test: PDK1 IMAP fluorescence polarization assay (inhibition of peptide substrate phosphorylation)
Type: biochemical

[1] = Table 6, 10 nM PDK1 enzyme, 100 nM peptide substrate, 100 nM PIFtide, 2.5 uM ATP, 1.5 hours

SMILES	IC50 [1] [nM]	IC50 (Table 10, compounds 97-132) [nM]
Cc1cc(-c2c[nH]c(C(=O)Nc3cccc(F)c3N3CCC(C(=O)N(C)C)CC3)n2)ccn1 [Compound 61, 1-[2-fluoro-6-[[[4-(2-methyl-4-pyridinyl)-1H-imidazol-2-yl]carbonyl]amino]phenyl]-N,N-dimethyl-4-piperidinecarboxamide]	1000 to 5000	
COc1cc(-c2c[nH]c(C(=O)Nc3cccc(F)c3N3CCC[C@@H](N)C3)n2)ccn1 [Compound 21, N-[2-(3(R)-amino-1-piperidinyl)-3-fluorophenyl]-4-(2-methoxy-4-pyridinyl)-1H-imidazole-2-carboxamide]	51 to 250	
N[C@@H]1CCCN(c2c(F)cccc2NC(=O)c2nc(-c3cn[nH]c3)c[nH]2)C1 [Compound 11, N-[2-(3(R)-amino-1-piperidinyl)-3-fluorophenyl]-4-(1H-pyrazol-4-yl)-1H-imidazole-2-carboxamide]	51 to 250	
NCC1CCN(c2ccc(-c3cn[nH]c3)cc2NC(=O)c2nc(-c3cn[nH]c3)c[nH]2)CC1 [Compound 51, N-[2-[4-(aminomethyl)-1-piperidinyl]-5-(1H-pyrazol-4-yl)phenyl]-4-(1H-pyrazol-4-yl)-1H-imidazole-2-carboxamide]	251 to 1000	
N[C@@H]1CCCN(c2c(F)cccc2NC(=O)c2nc(-c3ccnc(CO)c3)c[nH]2)C1 [Compound 26, N-[2-(3(R)-amino-1-piperidinyl)-3-fluorophenyl]-4-[2-(hydroxymethyl)-4-pyridinyl]-1H-imidazole-2-carboxamide]	1 to 50	
Cc1cc(-c2c[nH]c(C(=O)Nc3cccc(F)c3N3CCC(C(=O)N4CCOC(C(C)N)C4)CC3)n2)ccn1 (stereo not shown) [Compound 95, N-[2-[4-[[2-(1-aminoethyl)-4-morpholinyl]carbonyl]-1-piperidinyl]-3-fluorophenyl]-4-(2-methyl-4-pyridinyl)-1H-imidazole-2-carboxamide]	251 to 1000	
CNc1nc(-c2c[nH]c(C(=O)Nc3cccc(F)c3N3CCO[C@@H](CN)C3)n2)cc(N2C[C@@H](C(=O)NC3CCCCC3)CC[C@H]2C)n1 [Compound 117, (3S,6R)-1-(6-(2-(2-((S)-2-(aminomethyl)morpholino)-3-fluorophenylcarbamoyl)-1H-imidazol-4-yl)-2-(methylamino)pyrimidin-4-yl)-N-cyclohexyl-6-methylpiperidine-3-carboxamide]		1 to 50
Cc1cc(-c2c[nH]c(C(=O)Nc3cccc(F)c3N3CCC(C(=O)NCCN)CC3)n2)ccn1 [Compound 83, N-(2-aminoethyl)-1-[2-fluoro-6-[[[4-(2-methyl-4-pyridinyl)-1H-imidazol-2-yl]carbonyl]amino]phenyl]-4-piperidinecarboxamide]	51 to 250	
CNc1nc(-c2c[nH]c(C(=O)Nc3cccc(F)c3N3CCC(CN)CC3)n2)cc(N2CCO[C@H](CN)C2)n1 [Compound 123, (R)-4-(6-(2-(aminomethyl)morpholino)-2-(methylamino)pyrimidin-4-yl)-N-(2-(4-(aminomethyl)piperidin-1-yl)-3-fluorophenyl)-1H-imidazole-2-carboxamide]		1 to 50
NCC1CCN(c2c(F)cccc2NC(=O)c2nc(-c3ccc(=O)n(C(F)F)c3)c[nH]2)CC1 [Compound 97, N-(2-(4-(aminomethyl)piperidin-1-yl)-3-fluorophenyl)-4-(1-(difluoromethyl)-6-oxo-1,6-dihydropyridin-3-yl)-1H-imidazole-2-carboxamide]		51 to 250
CNCC1CCN(c2c(F)cccc2NC(=O)c2nc(-c3ccnc(C)c3)c[nH]2)CC1 [Compound 57, N-[3-fluoro-2-[4-[(methylamino)methyl]-1-piperidinyl]phenyl]-4-(2-methyl-4-pyridinyl)-1H-imidazole-2-carboxamide]	251 to 1000	
CC1CCC(C(=O)NC2CCCCC2)CN1c1cc(-c2c[nH]c(C(=O)Nc3cc(N)ccc3N3CCC4(CCCNC4)CC3)n2)nc(N)n1 (racemic) [Compound 112, 1-(2-amino-6-(2-(5-amino-2-(2,9-diazaspiro[5.5]undecan-9-yl)phenylcarbamoyl)-1H-imidazol-4-yl)pyrimidin-4-yl)-N-cyclohexyl-6-methylpiperidine-3-carboxamide]		1 to 50
CNc1nc(-c2c[nH]c(C(=O)Nc3ccccc3N3CCNCC3)n2)cc(N2CCOC(C(=O)NC3CCCCC3)C2)n1 (stereo not shown) [Compound 106, N-cyclohexyl-4-(2-(methylamino)-6-(2-(2-(piperazin-1-yl)phenylcarbamoyl)-1H-imidazol-4-yl)pyrimidin-4-yl)morpholine-2-carboxamide]		51 to 250
CN(C)CCOc1ccccc1NC(=O)c1nc(-c2cnn(Cc3ccccc3)c2)c[nH]1 [Compound 6, N-[2-[2-(dimethylamino)ethoxy]phenyl]-4-[1-(phenylmethyl)-1H-pyrazol-4-yl]-1H-imidazole-2-carboxamide]	1000 to 5000	
COC(=O)c1cccc(-c2c[nH]c(C(=O)Nc3cccc(F)c3N3CCC(CN)CC3)n2)c1 [Compound 56, methyl 3-[2-[[[2-[4-(aminomethyl)-1-piperidinyl]-3-fluorophenyl]amino]carbonyl]-1H-imidazol-4-yl]benzoate]	51 to 250	

More lines, now with the values ahead:

IC50 [1] [nM]	IC50 (Table 10, compounds 97-132) [nM]	SMILES
251 to 1000		Cc1cc(-c2c[nH]c(C(=O)Nc3cccc(F)c3N3CCC(CN(C)C)CC3)n2)ccn1 [Compound 50, N-[2-[4-[(dimethylamino)methyl]-1-piperidinyl]-3-fluorophenyl]-4-(2-methyl-4-pyridinyl)-1H-imidazole-2-carboxamide]
	1 to 50	CNc1nc(-c2c[nH]c(C(=O)Nc3cccc(F)c3N3CCC(CN)CC3)n2)cc(N2CCOC[C@H]2C)n1 [Compound 121, (R)—N-(2-(4-(aminomethyl)piperidin-1-yl)-3-fluorophenyl)-4-(2-(methylamino)-6-(3-methylmorpholino)pyrimidin-4-yl)-1H-imidazole-2-carboxamide]
	1 to 50	CNc1nc(-c2c[nH]c(C(=O)Nc3cccc(F)c3N3CCC(CN)CC3)n2)cc(N2C[C@@H](C(=O)NC3CCCCC3)CC[C@H]2C)n1 [Compound 115, (3S,6R)-1-(6-(2-(2-(4-(aminomethyl)piperidin-1-yl)-3-fluorophenylcarbamoyl)-1H-imidazol-4-yl)-2-(methylamino)pyrimidin-4-yl)-N-cyclohexyl-6-methylpiperidine-3-carboxamide]
51 to 250		NCC1CCN(c2c(F)cccc2NC(=O)c2nc(-c3cc(NCc4ccc(C(F)(F)F)cc4)nc(N)n3)c[nH]2)CC1 [Compound 70, N-[2-[4-(aminomethyl)-1-piperidinyl]-3-fluorophenyl]-4-[2-amino-6-[[[4-(trifluoromethyl)phenyl]methyl]amino]-4-pyrimidinyl]-1H-imidazole-2-carboxamide]
51 to 250		CCC1(CN)CCN(c2c(F)cccc2NC(=O)c2nc(-c3ccnc(C)c3)c[nH]2)CC1 [Compound 52, N-[2-[4-(aminomethyl)-4-ethyl-1-piperidinyl]-3-fluorophenyl]-4-(2-methyl-4-pyridinyl)-1H-imidazole-2-carboxamide]
51 to 250		Cc1cc(-c2c[nH]c(C(=O)Nc3cccc(F)c3N3CCC(C(=O)NCC4(N)CCCC4)CC3)n2)ccn1 [Compound 88, N-[(1-aminocyclopentyl)methyl]-1-[2-fluoro-6-[[[4-(2-methyl-4-pyridinyl)-1H-imidazol-2-yl]carbonyl]amino]phenyl]-4-piperidinecarboxamide]
51 to 250		NCC1CCN(c2c(F)cccc2NC(=O)c2nc(-c3ccnc(NC4CC4)c3)c[nH]2)CC1 [Compound 42, N-[2-[4-(aminomethyl)-1-piperidinyl]-3-fluorophenyl]-4-[2-(cyclopropylamino)-4-pyridinyl]-1H-imidazole-2-carboxamide]
1 to 50		Cc1cc(-c2c[nH]c(C(=O)Nc3cccc(F)c3N3CCC[C@@H](N)C3)n2)ccn1 [Compound 8, N-[2-(3(R)-amino-1-piperidinyl)-3-fluorophenyl]-4-(2-methyl-4-pyridinyl)-1H-imidazole-2-carboxamide]
51 to 250		N[C@@H]1CCCN(c2c(F)cccc2NC(=O)c2nc(-c3ccnc(C4CC4)c3)c[nH]2)C1 [Compound 23, N-[2-(3(R)-amino-1-piperidinyl)-3-fluorophenyl]-4-(2-cyclopropyl-4-pyridinyl)-1H-imidazole-2-carboxamide]
1 to 50		Cc1cc(-c2c[nH]c(C(=O)Nc3cccc(F)c3N3CCC[C@@H](N)C3)n2)cc(N)n1 [Compound 24, 4-(2-amino-6-methyl-4-pyridinyl)-N-[2-(3(R)-amino-1-piperidinyl)-3-fluorophenyl]-1H-imidazole-2-carboxamide]
51 to 250		N[C@@H]1CCCN(c2c(F)cccc2NC(=O)c2nc(-c3cnn(Cc4ccccc4)c3)c[nH]2)C1 [Compound 4, N-[2-(3(R)-amino-1-piperidinyl)-3-fluorophenyl]-4-[1-(phenylmethyl)-1H-pyrazol-4-yl]-1H-imidazole-2-carboxamide]
51 to 250		NCC1CCN(c2c(F)cccc2NC(=O)c2nc(-c3cc(NCc4ccc(F)c(F)c4)ncn3)c[nH]2)CC1 [Compound 74, N-[2-[4-(aminomethyl)-1-piperidinyl]-3-fluorophenyl]-4-[6-[[(3,4-difluorophenyl)methyl]amino]-4-pyrimidinyl]-1H-imidazole-2-carboxamide]
51 to 250		Cc1nc(N)cc(-c2c[nH]c(C(=O)Nc3cccc(F)c3N3CCC(CN)CC3)n2)n1 [Compound 49, N-[2-[4-(aminomethyl)-1-piperidinyl]-3-fluorophenyl]-4-(6-amino-2-methyl-4-pyrimidinyl)-1H-imidazole-2-carboxamide]
